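Five concentrations, 48 hours, 96-well plates. Here, GI50 denotes the concentration required for 50% inhibition of growth. Definition used: TGI = concentration required for complete inhibition of growth.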

Test systems include SN12C renal; UO-31 renal; 786-0 renal; RPMI-8226 leukemia; OVCAR-4 ovarian; NCI-H522 lung; MOLT-4 leukemia; HOP-62 NSCLC.
Holding throughout (assay): DTP human tumour cell line panel, 48 h

As for `O/N=C1/C(=C/c2ccccc2)CCCC1C(NO)c1ccccc1` (centres undefined), the TGI in the assay on SN12C renal, with UO-31 renal, in the assay with 786-0 renal, in the assay with RPMI-8226 leukemia, in the assay with OVCAR-4 ovarian and in the assay on NCI-H522 lung was over 100 µM each time. The TGI (usually the concentration at which net growth stops) with MOLT-4 leukemia was found to be 90.8 µM.

As for `C[n+]1ccc2[nH]c3ccccc3c2c1`, the TGI in the assay on SN12C renal, in the assay with UO-31 renal, with 786-0 renal, in the assay on RPMI-8226 leukemia, in the assay on OVCAR-4 ovarian and in the assay on HOP-62 NSCLC was over 100 µM each time. For the same compound, the TGI in the assay on NCI-H522 lung and with MOLT-4 leukemia was over 100 µM throughout.

As to `CN(/C(=N\O)c1ccccc1)c1ccccc1`, the TGI with SN12C renal is over 100 µM; in the assay with UO-31 renal, 69.3 µM; in the assay on 786-0 renal, 89 µM; in the assay on OVCAR-4 ovarian it was over 100 µM; with HOP-62 NSCLC, 58.8 µM; with NCI-H522 lung, 40.3 µM.

In the case of `N=C(N)Cn1cnc2ccccc21`, the TGI in the assay on SN12C renal, in the assay with UO-31 renal, in the assay with 786-0 renal, in the assay on RPMI-8226 leukemia, in the assay with HOP-62 NSCLC and in the assay on NCI-H522 lung was over 100 µM throughout. The compound further came in with a TGI with MOLT-4 leukemia of over 100 µM.

As for `CN(C(=O)C1CC1)C1C2CN3CCC(O2)C13` (centres undefined), the TGI in the assay on SN12C renal, in the assay with UO-31 renal, with 786-0 renal, in the assay with RPMI-8226 leukemia, with OVCAR-4 ovarian and with HOP-62 NSCLC was over 100 µM in each case. Moreover, the TGI in the assay on NCI-H522 lung and in the assay with MOLT-4 leukemia was over 100 µM each time.

Consider `CCC[CH2][Sn]1([CH2]CCC)[O]CC([CH2][Sn]([c]2ccccc2)([c]2ccccc2)[c]2ccccc2)[O]1` (centres undefined), for which the GI50 – broadly, the concentration giving 50% growth inhibition – in the assay on SN12C renal was 14 µM; in the assay on UO-31 renal it was 15.3 µM; in the assay with 786-0 renal, 11.8 µM; with RPMI-8226 leukemia, 2.85 µM; in the assay with NCI-H522 lung, 1.4 µM; in the assay with MOLT-4 leukemia it was 3.22 µM. For the same compound, the total growth inhibition concentration (TGI) with SN12C renal amounted to 27.7 µM; in the assay with UO-31 renal it was 28.7 µM; with 786-0 renal, 24.5 µM; in the assay with RPMI-8226 leukemia, 18.7 µM; in the assay with NCI-H522 lung, 3.37 µM; in the assay with MOLT-4 leukemia it was 28.5 µM.

In the case of `CC(=O)[CH-]C(=O)c1ccccc1.CC(=O)[CH-]C(=O)c1ccccc1.CC[O-].O=C1C=C([O-])C(=O)c2ccccc21.[Ti+4]`, the GI50 in the assay with SN12C renal is 97.9 µM; in the assay on UO-31 renal, over 100 µM; in the assay on 786-0 renal it was over 100 µM; in the assay with RPMI-8226 leukemia, 16.9 µM; in the assay on OVCAR-4 ovarian it was over 100 µM; with HOP-62 NSCLC, 58.2 µM. For the same compound, the GI50 with NCI-H522 lung is 10.6 µM; in the assay with MOLT-4 leukemia, 58.3 µM. The TGI was over 100 µM in the assay with SN12C renal; over 100 µM with UO-31 renal; over 100 µM in the assay on 786-0 renal; 85.8 µM in the assay with RPMI-8226 leukemia; over 100 µM in the assay with OVCAR-4 ovarian; over 100 µM in the assay on HOP-62 NSCLC. Besides, the values for the TGI in the assay on NCI-H522 lung and in the assay with MOLT-4 leukemia were 69.3 µM and over 100 µM, respectively.

With `CCCCCC/C=C/CCCCCCCc1cccc(O)c1C(=O)O`, the TGI in the assay on UO-31 renal, in the assay on 786-0 renal, in the assay with RPMI-8226 leukemia, with OVCAR-4 ovarian, with HOP-62 NSCLC and with NCI-H522 lung was over 100 µM throughout. In the assay with MOLT-4 leukemia, the TGI was over 100 µM.

Take `NC(=O)N/N=C1/CCCC/C1=C\c1ccccc1`: the TGI with SN12C renal, in the assay on UO-31 renal, in the assay on 786-0 renal, in the assay with RPMI-8226 leukemia, in the assay on OVCAR-4 ovarian and with HOP-62 NSCLC was over 100 µM in each case. The TGI with NCI-H522 lung and in the assay with MOLT-4 leukemia was over 100 µM in each case.

As to `Cn1c(=O)c2[nH]cnc2n(CC(=O)O)c1=O`, the TGI in the assay with SN12C renal, with UO-31 renal, in the assay with 786-0 renal, with RPMI-8226 leukemia, with HOP-62 NSCLC and with NCI-H522 lung was over 100 µM throughout. The compound further displayed a TGI in the assay on MOLT-4 leukemia of over 100 µM.

Regarding `CC(=O)NNc1nc(C)c(C(/C=C/c2ccc(Cl)cc2)=N/NC(=S)NN)s1`, the TGI in the assay on SN12C renal, in the assay on UO-31 renal, in the assay on 786-0 renal, with RPMI-8226 leukemia, with OVCAR-4 ovarian and in the assay with HOP-62 NSCLC was over 100 µM each time. In addition, the total growth inhibition concentration (TGI) with NCI-H522 lung and in the assay on MOLT-4 leukemia was over 100 µM in each case.

Consider `CCCCCCCCCCCCOC(=S)NC`, for which the TGI in the assay on SN12C renal was found to be 31.7 µM; in the assay on UO-31 renal, 43.7 µM; with 786-0 renal, 34.2 µM; in the assay with RPMI-8226 leukemia, 36.1 µM; in the assay on OVCAR-4 ovarian it was 56 µM; in the assay with HOP-62 NSCLC it was 37.3 µM. In addition, the results for the concentration for total growth inhibition (TGI) in the assay on NCI-H522 lung and in the assay on MOLT-4 leukemia were 58 µM and 32.1 µM, respectively.

As for `CCN1CCC(O)(c2ccc(Cl)c(Cl)c2)C(C(=O)c2ccc(Cl)c(Cl)c2)C1` (centres undefined), the TGI with SN12C renal came out at 35 µM; in the assay on UO-31 renal, 31.4 µM; in the assay on 786-0 renal, 29.1 µM; in the assay with RPMI-8226 leukemia it was 5.72 µM; in the assay with OVCAR-4 ovarian, 32.6 µM; in the assay with HOP-62 NSCLC, 33.9 µM. For the same compound, the total growth inhibition concentration (TGI) in the assay with NCI-H522 lung stood at 13 µM; in the assay with MOLT-4 leukemia, 32.4 µM.

In the case of `COc1cc(CCC(=O)NS(=O)(=O)c2ccccc2)cc(OC)c1OC`, the TGI with SN12C renal, with UO-31 renal, in the assay on 786-0 renal, with RPMI-8226 leukemia, with OVCAR-4 ovarian and in the assay with HOP-62 NSCLC was over 100 µM in each case. Besides, the TGI in the assay on NCI-H522 lung and in the assay with MOLT-4 leukemia was over 100 µM throughout.

As for `CC(=O)OC1C/C(C)=C/[C@H](O)CC(C)/C=C/[C@@]2(C)CCC(C(C)(C)O)C12` (some centres undefined), the TGI in the assay on SN12C renal, with UO-31 renal, with 786-0 renal, with RPMI-8226 leukemia, in the assay on OVCAR-4 ovarian and with HOP-62 NSCLC was over 100 µM each time. The compound further came in with a TGI in the assay on MOLT-4 leukemia of over 100 µM.

With `COC(=O)C(C(=O)C(=O)Nc1ccc(C)cc1C)c1nc2ccc([N+](=O)[O-])cc2[nH]c1=O` (centres undefined), the TGI with SN12C renal, in the assay on UO-31 renal, in the assay on 786-0 renal, with RPMI-8226 leukemia, in the assay with OVCAR-4 ovarian and with HOP-62 NSCLC was over 100 µM each time. Also, the TGI with NCI-H522 lung and in the assay with MOLT-4 leukemia was over 100 µM in each case.

As for `COC(=O)NN=C1C(C)(C)C(=NNC(=O)OC)C1(C)C`, the TGI in the assay with SN12C renal, in the assay with UO-31 renal, with 786-0 renal, in the assay with OVCAR-4 ovarian, with HOP-62 NSCLC and with NCI-H522 lung was over 100 µM in each case. Also, the total growth inhibition concentration (TGI) in the assay on MOLT-4 leukemia was over 100 µM.

As to `CC(C)(C)[Si](Nc1ccccc1)(c1ccccc1)c1ccccc1`, the TGI is 28.3 µM in the assay with SN12C renal; 18.5 µM in the assay with UO-31 renal; 28.4 µM in the assay on 786-0 renal; 44.1 µM in the assay on RPMI-8226 leukemia; 27.1 µM in the assay on OVCAR-4 ovarian; 31.4 µM in the assay on HOP-62 NSCLC. The same compound gave a TGI in the assay on MOLT-4 leukemia of 26.2 µM.

Regarding `CCCCCCCCCCCCCCCCCCOCC1(COP(=O)([O-])OCC[N+](C)(C)C)CCCO1` (centres undefined), the TGI amounted to 5.81 µM in the assay on SN12C renal; 21.9 µM in the assay on UO-31 renal; 13.6 µM with 786-0 renal; 8.55 µM in the assay with RPMI-8226 leukemia; 8.38 µM in the assay with OVCAR-4 ovarian; 9.45 µM in the assay on HOP-62 NSCLC. Also, the TGI stood at 6.23 µM in the assay on NCI-H522 lung and 4.84 µM with MOLT-4 leukemia.

With `O=C(Cc1nc2ccccc2s1)C(=O)Nc1ccc(Cl)cc1Cl`, the TGI in the assay on SN12C renal, with UO-31 renal, in the assay on 786-0 renal, in the assay with RPMI-8226 leukemia, in the assay with OVCAR-4 ovarian and in the assay with HOP-62 NSCLC was over 100 µM each time. The same compound showed a TGI with MOLT-4 leukemia of over 100 µM.

Turning to `CC(=O)Oc1cc(OC(C)=O)c2cc3c(cc2c1OC(C)=O)C(=O)C1(CCCC1)C3=O`, the TGI in the assay on SN12C renal worked out at 31.6 µM; with UO-31 renal, 29.8 µM; in the assay with 786-0 renal, 31.5 µM; in the assay with RPMI-8226 leukemia it was 4.89 µM; in the assay on OVCAR-4 ovarian, 33 µM; in the assay with HOP-62 NSCLC, 42 µM. In the assay on MOLT-4 leukemia, this compound displayed a total growth inhibition concentration (TGI) of 15 µM.

For the compound `C/C(CC(=O)Nc1ccc(NC(=O)/C(C)=N/NS(=O)(=O)c2ccc(C)cc2)cc1)=N\NS(=O)(=O)c1ccc(C)cc1`, the TGI in the assay with SN12C renal, in the assay with UO-31 renal, in the assay on 786-0 renal, in the assay with RPMI-8226 leukemia, in the assay with HOP-62 NSCLC and with MOLT-4 leukemia was over 100 µM in each case.

Consider `N#CNc1nc(C(=O)Nc2ccc(Cl)cc2)cc(-c2ccccc2)n1`, for which the TGI with SN12C renal, in the assay on UO-31 renal, in the assay with 786-0 renal, in the assay on RPMI-8226 leukemia, with OVCAR-4 ovarian and in the assay with HOP-62 NSCLC was over 100 µM in each case. Further, the TGI in the assay with MOLT-4 leukemia is over 100 µM.

Take `O=C(Nc1ccccc1)OCc1nc2c([nH]1)C(=O)C=CC2=O`: the TGI with SN12C renal was 36.3 µM; in the assay on UO-31 renal, 30.5 µM; with 786-0 renal, 32.5 µM; with RPMI-8226 leukemia, 51.1 µM; in the assay with OVCAR-4 ovarian it was 28 µM; in the assay on HOP-62 NSCLC it was over 100 µM. Besides, the TGI in the assay with MOLT-4 leukemia is 6.71 µM.
